According to patent US12528801B2 (Givaudan SA, priority 2019, dated 2026):

Each molecule was assayed against T1, hTRPM8 (Homo sapiens, UniProt Q7Z2W7) (assay: Assay on TRPM8 modulators: calcium imaging (Fluo-4, Flexstation) in HEK293 cell line stably expressing hTRPM8). Details: HEK293 cells stably expressing hTRPM8; calcium influx, Fluo-4, Flexstation 3; sigmoidal dose-response fit.
T1 construct: expressed in transfected cells
T1 sequence (Q7Z2W7 whole entry): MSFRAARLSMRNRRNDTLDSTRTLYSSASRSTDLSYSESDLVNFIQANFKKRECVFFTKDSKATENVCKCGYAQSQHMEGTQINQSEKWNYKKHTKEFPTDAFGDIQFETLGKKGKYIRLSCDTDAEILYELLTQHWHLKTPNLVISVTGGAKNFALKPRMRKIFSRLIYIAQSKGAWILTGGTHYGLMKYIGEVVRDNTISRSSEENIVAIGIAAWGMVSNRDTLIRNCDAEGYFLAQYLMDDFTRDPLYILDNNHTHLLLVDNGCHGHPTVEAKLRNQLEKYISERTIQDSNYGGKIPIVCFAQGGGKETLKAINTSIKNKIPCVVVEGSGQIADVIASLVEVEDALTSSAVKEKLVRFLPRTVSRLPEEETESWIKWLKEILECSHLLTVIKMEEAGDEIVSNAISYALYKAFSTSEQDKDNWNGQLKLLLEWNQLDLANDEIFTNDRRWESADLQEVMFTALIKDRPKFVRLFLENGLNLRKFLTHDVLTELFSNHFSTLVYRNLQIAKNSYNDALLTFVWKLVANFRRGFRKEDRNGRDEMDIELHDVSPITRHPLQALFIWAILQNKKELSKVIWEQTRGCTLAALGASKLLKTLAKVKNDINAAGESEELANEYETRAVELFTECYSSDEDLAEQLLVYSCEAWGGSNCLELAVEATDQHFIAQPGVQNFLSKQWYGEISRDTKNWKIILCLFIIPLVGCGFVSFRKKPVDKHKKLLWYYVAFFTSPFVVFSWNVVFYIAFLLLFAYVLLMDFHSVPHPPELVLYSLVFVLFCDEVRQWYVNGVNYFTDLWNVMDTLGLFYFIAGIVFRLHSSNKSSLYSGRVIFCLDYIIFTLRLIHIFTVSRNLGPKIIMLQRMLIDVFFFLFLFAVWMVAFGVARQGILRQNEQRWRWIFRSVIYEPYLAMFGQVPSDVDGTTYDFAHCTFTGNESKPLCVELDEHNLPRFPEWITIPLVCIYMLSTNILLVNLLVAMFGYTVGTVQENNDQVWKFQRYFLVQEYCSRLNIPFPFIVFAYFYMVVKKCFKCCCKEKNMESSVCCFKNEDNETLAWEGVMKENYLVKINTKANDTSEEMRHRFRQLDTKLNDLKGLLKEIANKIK
Type: cell-based
Description: A HEK293 cell line stably expressing hTRPM8 was generated according to Klein of at, (Chem. Senses 36: […], 2011) and receptor activation was monitored by calcium imaging in a Flexstation. For Ca-imaging assays of TRPM8 channel activation, cells were seeded on day 0 at a density of 12000 cells per well in Dulbecco's modified Eagle medium (DMEM) containing 9% foetal bovine serum in black, clear bottom 96-well plates that had been coated with 0.001% polyethyleneimine (molecular weight=60 000, Acros Organics). On day 2, agonists were evaluated via calcium imaging using Fluo-4. Briefly, growth medium was discarded, and the cells were incubated in the dark for 1 h at 37° C. in 50 μL loading buffer consisting of 2.7 μM Fluo-4 AM (Invitrogen) and […] probenecid (Sigma-Aldrich) in DMEM (without serum). After incubation, the plates were washed five times with 100 μL of assay buffer (in mM: 130 NaCl, 5 KCl, 10 HEPES, 2 CaCl2, and 10 glucose, pH7.4.) and further incubated in the dark at room temperature for 30 min. The cells were then washed five times with 100 μL assay buffer and then calcium influx to serial dilutions of inventive compounds were measured in a Flexstation 3 (Molecular Devices). Receptor activation was initiated following addition of 20 μl of a 10-fold concentrated ligand stock solution, which is also prepared in assay buffer. Fluorescence was continuously monitored for 15 seconds prior to ligand addition and for 105 seconds after ligand addition, for a total of 120 seconds. Maximal receptor activation in relation to solvent control and relative to 31.6 μM menthol is determined. Data from serial dilutions were processed with a KNIME workflow to fit a sigmoidal dose-response curve and to extrapolate […].
`CO[C@@H]1C[C@H]1C(=O)N1CCCCC1c1nc(-c2ccccc2)c[nH]1` (relative stereo) [Compound 5, (trans-2-methoxycyclopropyl)(2-(4-phenyl-1H-imidazol-2-yl)piperidin-1-yl)methanone] gave an EC50 of 1000 to 35000 nM.
`N#C[C@@H]1C[C@@H]1C(=O)N1CCCCC1c1nc(-c2ccccc2)c[nH]1` (relative stereo) [Compound 90, cis-2-(2-(4-phenyl-1H-imidazol-2-yl)piperidine-1-carbonyl)cyclopropane-1-carbonitrile] was tested, and the EC50 was 1000 to 35000 nM.
`O=C(c1cnns1)N1CCCCC1c1nc(-c2ccccc2)c[nH]1` (centres unmarked) [Compound 1, (2-(4-phenyl-1H-imidazol-2-y)piperidin-1-yl)(1,2,3-thiadiazol-5-yl)methanone] showed an EC50 of 1000 to 35000 nM.
With `O=C(C1CSC1)N1CCCCC1c1nc(-c2ccccc2)c[nH]1` (centres unmarked) [Compound 2, (2-(4-phenyl-1H-imidazol-2-yl)piperidin-1-yl)(thietan-3-yl)methanone] the EC50 was 300 to 1000 nM.
In the case of `CC1(C)CC1C(=O)N1CCCCC1c1nc(-c2ccccc2)c[nH]1` (centres unmarked) [Compound 3, (2,2-dimethylcyclopropyl)(2-(4-phenyl-1H-imidazol-2-yl)piperidin-1-yl)methanone], the EC50 is reported as < 50 nM.
With `CCOC1CC1C(=O)N1CCCCC1c1nc(-c2ccccc2)c[nH]1` (centres unmarked) [Compound 4, (2-ethoxycyclopropyl)(2-(4-phenyl-1H-imidazol-2-yl)piperidin-1-yl)methanone] the EC50 was 300 to 1000 nM.
With `CC1CC1C(=O)N1CCCCC1c1nc(-c2ccccc2)c[nH]1` (centres unmarked) [Compound 6, (2-methylcyclopropyl)(2-(4-phenyl-1H-imidazol-2-yl)piperidin-1-yl)methanone] the EC50 was 50 to 300 nM.
`CC1CC(C(=O)N2CCCCC2c2nc(-c3ccccc3)c[nH]2)CO1` (centres unmarked) [Compound 7, (5-methyltetrahydrofuran-3-yl)(2-(4-phenyl-1H-imidazol-2-yl)piperidin-1-yl)methanone] showed an EC50 of 1000 to 35000 nM.
`C/C=C(\C)C(=O)N1CCCCC1c1ncc(-c2ccc(F)c(F)c2)[nH]1` (centres unmarked) [Compound 8, (E)-1-(2-(5-(3,4-difluorophenyl)-1H-imidazol-2-yl)piperidin-1-yl)-2-methylbut-2-en-1-one] showed an EC50 of 50 to 300 nM.
`C/C=C(\C)C(=O)N1CCCCC1c1ncc(-c2ccc(C)cc2)[nH]1` (centres unmarked) [Compound 9, (E)-2-methyl-1-(2-(5-(p-tolyl)-1H-imidazol-2-yl)piperidin-1-yl)but-2-en-1-one] was tested, and the EC50 was < 50 nM.
For `C/C=C/C(C)C(=O)N1CCCCC1c1ncc(-c2ccc(C)cc2)[nH]1` (centres unmarked) [Compound 10, (E)-2-methyl-1-(2-(5-(p-tolyl)-1H-imidazol-2-yl)piperidin-1-yl)pent-3-en-1-one], the EC50 was < 50 nM.
In the case of `CS[C@@H](C)C(=O)N1CCCC[C@@H]1c1ncc(-c2ccc(C)cc2)[nH]1` [Compound 12, (S)-2-(methylthio)-1-((R)-2-(5-(p-tolyl)-1H-imidazol-2-yl)piperidin-1-yl)propan-1-one], the EC50 is reported as < 50 nM.
For `CS[C@@H](C)C(=O)N1CCCC[C@H]1c1ncc(-c2ccc(C)cc2)[nH]1` [Compound 13, (S)-2-(methylthio)-1-((S)-2-(5-(p-tolyl)-1H-imidazol-2-yl)piperidin-1-yl)propan-1-one], the EC50 was 50 to 300 nM.
Work on `Cc1ccc(-c2cnc(C3CCCCN3C(=O)C3CCOC3)[nH]2)cc1` (centres unmarked) [Compound 14, (tetrahydrofuran-3-yl)(2-(5-(p-toly)-1H-imidazol-2-yl)piperidin-1-yl)methanone] yielded an EC50 of 300 to 1000 nM.
Work on `CSC(C)C(=O)N1CCCCC1c1nc2ccccc2[nH]1` (centres unmarked) [Compound 15, 1-(2-(1H-benzo[d]imidazol-2-yl)piperidin-1-yl)-2-(methylthio)propan-1-one] yielded an EC50 of 1000 to 35000 nM.
`CSC(C)C(=O)N1CCCCC1c1nc(-c2cnn(C)c2)c[nH]1` (centres unmarked) [Compound 16, 1-(2-(4-(1-methyl-1H-pyrazol-4-yl)-1H-imidazol-2-yl)piperidin-1-yl)-2-(methylthio)propan-1-one] was tested, and the EC50 was 300 to 1000 nM.
For `CSC(C)C(=O)N1CCCCC1c1nc(-c2ccc3c(c2)OC(F)(F)O3)c[nH]1` (centres unmarked) [Compound 17, 1-(2-(4-(2,2-difluorobenzo[d][1,3]dioxol-5-yl)-1H-imidazol-2-yl)piperidin-1-yl)-2-(methylthio)propan-1-one], the EC50 was < 50 nM.
With `CSC(C)C(=O)N1CCCCC1c1nc(-c2ccc3c(c2)CCO3)c[nH]1` (centres unmarked) [Compound 18, 1-(2-(4-(2,3-dihydrobenzofuran-5-yl)-1H-imidazol-2-yl)piperidin-1-yl)-2-(methylthio)propan-1-one] the EC50 was < 50 nM.
With `CSC(C)C(=O)N1CCCCC1c1nc(-c2ccc3c(c2)OCC3)c[nH]1` (centres unmarked) [Compound 19, 1-(2-(4-(2,3-dihydrobenzofuran-6-yl)-1H-imidazol-2-yl)piperidin-1-yl)-2-(methylthio)propan-1-one] the EC50 was < 50 nM.
In the case of `CSC(C)C(=O)N1CCCCC1c1nc(-c2cc(C)ccc2C)c[nH]1` (centres unmarked) [Compound 20, 1-(2-(4-(2,5-dimethylphenyl)-1H-imidazol-2-yl)piperidin-1-yl)-2-(methylthio)propan-1-one], the EC50 is reported as 300 to 1000 nM.
`CSC(C)C(=O)N1CCCCC1c1nc(-c2ccccc2Cl)c[nH]1` (centres unmarked) [Compound 21, 1-(2-(4-(2-chlorophenyl)-1H-imidazol-2-yl)piperidin-1-yl)-2-(methylthio)propan-1-one] was tested, and the EC50 was < 50 nM.
Work on `CSC(C)C(=O)N1CCCCC1c1nc(-c2cnc(C3CC3)o2)c[nH]1` (centres unmarked) [Compound 22, 1-(2-(4-(2-cyclopropyloxazol-5-yl)-1H-imidazol-2-yl)piperidin-1-yl)-2-(methylthio)propan-1-one] yielded an EC50 of 50 to 300 nM.
With `CSC(C)C(=O)N1CCCCC1c1nc(-c2ccccc2F)c[nH]1` (centres unmarked) [Compound 23, 1-(2-(4-(2-fluorophenyl)-1H-imidazol-2-yl)piperidin-1-yl)-2-(methylthio)propan-1-one] the EC50 was < 50 nM.
`CSC(C)C(=O)N1CCCCC1c1nc(-c2ccccc2O)c[nH]1` (centres unmarked) [Compound 24, 1-(2-(4-(2-hydroxyphenyl)-1H-imidazol-2-yl)piperidin-1-yl)-2-(methylthio)propan-1-one] gave an EC50 of 50 to 300 nM.
`CSC(C)C(=O)N1CCCCC1c1nc(-c2cccc(CN(C)C)c2)c[nH]1` (centres unmarked) [Compound 25, 1-(2-(4-(3-((dimethylamino)methyl)phenyl)-1H-imidazol-2-yl)piperidin-1-yl)-2-(methylthio)propan-1-one] was tested, and the EC50 was 300 to 1000 nM.
For `CSC(C)C(=O)N1CCCCC1c1nc(-c2cc(F)cc(F)c2)c[nH]1` (centres unmarked) [Compound 26, 1-(2-(4-(3,5-difluorophenyl)-1H-imidazol-2-yl)piperidin-1-yl)-2-(methylthio)propan-1-one], the EC50 was < 50 nM.
For `CSC(C)C(=O)N1CCCCC1c1nc(-c2c(C)noc2C)c[nH]1` (centres unmarked) [Compound 27, 1-(2-(4-(3,5-dimethylisoxazol-4-yl)-1H-imidazol-2-yl)piperidin-1-yl)-2-(methylthio)propan-1-one], the EC50 was 1000 to 35000 nM.
For `CSC(C)C(=O)N1CCCCC1c1nc(-c2ccc(C)c(Cl)c2)c[nH]1` (centres unmarked) [Compound 28, 1-(2-(4-(3-chloro-4-methylphenyl)-1H-imidazol-2-yl)piperidin-1-yl)-2-(methylthio)propan-1-one], the EC50 was < 50 nM.
`CSC(C)C(=O)N1CCCCC1c1nc(-c2occc2C)c[nH]1` (centres unmarked) [Compound 29, 1-(2-(4-(3-methylfuran-2-yl)-1H-imidazol-2-yl)piperidin-1-yl)-2-(methylthio)propan-1-one] showed an EC50 of 50 to 300 nM.
